Experiment [1] deals with bovine capillary endothelial cells (BCE). The experiment in a line: DNA synthesis (3H-thymidine incorporation) in BCE cells. Type of experiment: cell-based. How it is done: Brain bovine capillary endothelial cells (BCE) and bovine vascular smooth muscle cells (BSMC), kindly provided by Prof. Israel Vlodavsky (Hadassah Medical School, Jerusalem, Israel), were cultured at 37° C. in low glucose DMEM (1 g/liter) supplemented with 10% calf serum (HyClone, Logan, Utah, U.S.A.), a serum-free supplement: biogro-1 (Beth Haemek, Israel) and GPS.
(§1) Bovine capillary endothelial cells (BCE) and bovine aortic BSMC were plated in 24-well plates (6000 cells per well) in 500 μl DMEM medium supplemented with 10% Colorado calf serum (CCS) (GIBCO, USA) and GPS. After 24 hours, medium was changed to starvation medium (2% CCS, 0.5% BSA, GPS) for 24 hours. ^3 H-methyl-thymidine (5 μCi/ml) was added for the last 6 hours. DNA synthesis assays were performed as described above, in triplicates. DNA synthesis assays in BALB/MK keratinocytes were performed as previously described (Marikovsky, 1995).-DNA synthesis assays were performed in triplicates.
Disulfiram was prepared in 0.1 mM stock solutions in DMSO. Control samples were incubated with the appropriate concentration of DMSO. Inhibition was calculated as percentage of DNA synthesis of control.
To determine whether disulfiram acts directly on endothelial cells rather than on accessory cells such as macrophages and mast cells that can be responsible for the development of an angiogenic response in vivo, the effect of the drug on the growth of BCE cells was examined in vitro as described in section (c) of "Materials and Methods" above. DNA synthesis in BCE cells was measured in presence of increasing concentrations of disulfiram incubated for 24 hours with the cells. […] Maximal inhibitory activity (80%) for BSMC was at 0.5-1 μM disulfiram, while maximal inhibitory activity for C6 glioma cells or BALB/MK keratinocytes was at concentrations 10 fold higher (2-3 μM) than those for endothelial cells (0.2-0.5 μM).
To examine the time course of the effect of disulfiram and whether the effect was reversible, cells were incubated with disulfiram for various periods of time (1, 2, 4 and 24 hours), then washed away and DNA synthesis was determined. One to 4 hours of exposure to disulfiram were enough to induce maximal inhibitory effect at concentrations ranging from 0.5 μM for BCE cells (FIG. 3A) to 5 μM for BALB/MK keratinocytes (FIG. 3C) and C6 glioma cells (FIG. 3D). […] BSMC were less sensitive as far as time course is concerned when incubated with 1 μM disulfiram. Following 4 hours of incubation with 1 μM disulfiram, DNA synthesis inhibition in BSMC reached only 50% (FIG. 3B). The data shown here indicate that the damage for capillary endothelial cells, following a short incubation of 1 to 2 hours, was maximal and that, at least in a time scale of 24 hours, this damage was non-reversible.
In general terms: Incorporation of labelled thymidine or its analogues reports DNA synthesis.

Experiment [2] has as its system bovine aortic vascular smooth muscle cells (BSMC). Kind of experiment: DNA synthesis (3H-thymidine incorporation) in BSMC. In kind it is cell-based. How it is done: Bovine aortic vascular smooth muscle cells (BSMC) were cultured in low glucose DMEM (1 g/liter) supplemented with 10% FCS (HyClone, Logan, Utah) and GPS.
as §1
Disulfiram was prepared in 0.1 mM stock solutions in DMSO. […] Inhibition was calculated as percentage of DNA synthesis of control.
To determine whether disulfiram acts directly on endothelial cells rather than on accessory cells such as macrophages and mast cells that can be responsible for the development of an angiogenic response in vivo, the effect of the drug on the growth of BCE cells was examined in vitro as described in section (c) of "Materials and Methods" above. DNA synthesis in BCE cells was measured in presence of increasing concentrations of disulfiram incubated for 24 hours with the cells. […]

The subject of the next experiment is 3T3 fibroblasts. Kind of experiment: Cell rounding, 3T3 fibroblasts. In kind it is cell-based. Particulars: 1 μM.
The subject of another experiment is BSMC. Kind of experiment: TUNEL assay for apoptosis, BSMC. The conditions noted are these: 1 μM, 6 hours. In kind it is cell-based, bovine. As to the method:
(§2) Cells were cultured on microscope slides for 48 hours in presence of growth media as described above, until reaching 40-50% confluency. Disulfiram was then added to the cells for 6 hours or for 20 hours in the case of BALB/MK keratinocytes, fixed with 4% paraformaldehyde and washed three times with PBS. Apoptosis was analyzed by the in situ TUNEL staining carried out as described (Wride, 1994). Briefly, microscope slides were incubated for 15 min in 2×SSC buffer at 60° C., washed in DDW and incubated with 20 μg/ml proteinase K (Boehringer Mannheim) for 15 min at room temperature. After a wash with DDW, endogenous peroxidases were inactivated by incubating the slides with 2% H2 O2 in PBST (PBS with 0.05% Tween 20) for 10 min at room temperature. Slides were then incubated in TdT buffer (Boehringer Mannheim) for 5 min at room temperature, and a reaction mixture containing 5×TdT buffer and 1 μl biotin-21-dUTP (Clontech, 1 mM stock) and 8 units of the TdT enzyme (Boehringer Mannheim) in total volume of 50 μl was subsequently added. The reactions were carried out at 37° C. for 1.5 hr in a humid chamber. The slides were washed in 2×SSC, DDW and finally with PBS and covered with 10% skim milk in PBST for 15 min. […]

Another experiment has as its system C6 rat glioma cells. Kind of experiment: TUNEL assay for apoptosis, C6 rat glioma cells. Type of experiment: cell-based. Particulars: 5 μM, 6 hours. As to the method:
as §2

A further experiment has as its system C6 rat glioma tumor. Kind of experiment: Growth of C6 glioma tumors in nude mice. Type of experiment: in vivo, CD1 nude male mice; C6 rat glioma cells. Particulars: 30 days; for Tumor weight / % inhibition (tumor growth): per os 3 times per week; for Tumor weight: n=8, mean ± SEM, control 1.37 ± 0.21. As to the method:
C6 rat glioma cells (10^6) were injected subcutaneously into the back of the neck of CD1 nude male mice. After 3 days, 1 ml of aqueous solutions with or without 0.1-0.5 mM disulfiram (25-120 μg) was introduced per os to the mice using a feeding needle. Mice were orally fed three times per week. Tumors were removed 30 days following C6 cells injection, weighed, fixed in buffered formalin and histological sections were prepared. Each experimental group included 8 animals, and experiments were repeated twice.
Tumors from mice fed systemically 3 times a week with disulfiram were weighed 30 days following administration of C6 rat glioma cells to CD1 nude mice. […] Experiments were repeated twice (n=8).

The next experiment concerns Meth A tumor cell. Particulars: together with ascorbic acid, in vitro; cited from earlier work.
A further experiment relates to bladder cancer. The conditions noted are these: N-butyl-N-(4-hydroxybutyl)nitrosamine or N-butyl-N-(3-carboxypropyl)nitrosamine, rats; cited from earlier work.
Experiment [3] deals with tumor progression from papilloma to squamous cell carcinoma. The conditions noted are these: murine skin multistage carcinogenesis model; cited from earlier work.

Entries after “also recorded” stand apart in the source; their conditions may differ. Read-outs that look alike come from different tables or passages of the source.

As for `CCN(CC)C(=S)SSC(=S)N(CC)CC` [disulfiram, Bis(diethylthiocarbamoyl) disulfide], the “inhibition of DNA synthesis in BCE cells (in words)” value in [1] (0.1-0.5 μM, 24 hours) was “inhibit DNA synthesis in BCE cells in a dose dependent manner”. In addition, the “reversibility of damage for capillary endothelial cells” value in experiment [1] (1 to 2 hours incubation, time scale of 24 hours) is on record as “non-reversible”. Besides, the “concentration used in vitro for endothelial cells (inhibition of growth)” value in [1] (BCE) was 0.1 to 0.2 µM. Also, in experiment [1] (BCE, 0.5 μM, 1-2 hours of incubation), the “inhibition of DNA synthesis, short incubation (in words)” value is listed as “near maximal inhibition of DNA synthesis”. The “persistence of inhibitory effect after short exposure” value in experiment [1] (BCE, 24 hours following short exposure) is listed as “inhibitory effect seemed to be maintained”. Further, the IC (maximal) in experiment [1] (Bos taurus, Endothelial cell, BCE (endothelial cells), 24 hours, read-out: concentration of maximal inhibitory activity (DNA synthesis)) is 0.2 to 0.5 µM; in [1] (Bos taurus, Endothelial cell, BCE, 1 to 4 hours of exposure, washed, read-out: concentration inducing maximal inhibitory effect on DNA synthesis, short exposure), 0.5 µM. Further, the IC100 in experiment [1] (Bos taurus, Endothelial cell, BCE, 24 hours, read-out: concentration of complete inhibition of DNA synthesis) amounted to 0.5 µM. Further, in experiment [2] (0.5-1 μM disulfiram), the “maximal inhibitory activity (DNA synthesis)” value amounted to 80%. Testing at 1 µM in experiment [2] (Bos taurus, 1 μM, 4 hours of incubation) gave an inhibition of 50%. The cell rounding result in the experiment on 3T3 fibroblasts is recorded as “did not change their shape to the rounded form”. Besides, the “apoptosis by TUNEL method” value in the experiment with BSMC and in the experiment with C6 rat glioma cells was “not labeled; also recorded: did not induce” each time. Also, the Tumor weight came to 0.59 ± 0.08 g in the experiment with C6 rat glioma tumor (25 μg, p = 0.003) and 0.84 ± 0.18 g in the experiment on C6 rat glioma tumor (120 μg, p < 0.05). For the same molecule, the “% inhibition (tumor growth)” value in the experiment with C6 rat glioma tumor (25 μg/mouse, p = 0.003) was 57%; in the experiment on C6 rat glioma tumor (120 μg/mouse, p < 0.05), 38%. The “tumor size compared with water-fed control (in words)” value in the experiment on C6 rat glioma tumor (fed 3 times a week, n=8) is given as “significantly smaller”. Further, the “inhibition of Meth A tumor cell proliferation” value in the experiment with Meth A tumor cell is recorded as “augmented inhibition”. Further, in the experiment with bladder cancer, the “interference with induction of bladder cancer” value is “interfere with induction of cancer”. In experiment [3], the “inhibition of tumor progression” value is recorded as “inhibit tumor progression”.

The values are drawn from patent US6288110A, “Pharmaceutical compositions comprising disulfiram” (Yeda Research and Development Co Ltd., priority 1998, dated 2001).
